Experimental findings from article PMC9894920, “Development of an improved and specific inhibitor of NADPH oxidase 2 to treat traumatic brain injury” (Redox Biology, 2023) are described below.

In one test the target is T1, NOX1 (Homo sapiens, UniProt Q9Y5S8).
T1 construct: expressed in transfected cells; host or cells: Expi293 (human embryonic kidney) cells, transient transfection
T1 sequence (Q9Y5S8 1-564): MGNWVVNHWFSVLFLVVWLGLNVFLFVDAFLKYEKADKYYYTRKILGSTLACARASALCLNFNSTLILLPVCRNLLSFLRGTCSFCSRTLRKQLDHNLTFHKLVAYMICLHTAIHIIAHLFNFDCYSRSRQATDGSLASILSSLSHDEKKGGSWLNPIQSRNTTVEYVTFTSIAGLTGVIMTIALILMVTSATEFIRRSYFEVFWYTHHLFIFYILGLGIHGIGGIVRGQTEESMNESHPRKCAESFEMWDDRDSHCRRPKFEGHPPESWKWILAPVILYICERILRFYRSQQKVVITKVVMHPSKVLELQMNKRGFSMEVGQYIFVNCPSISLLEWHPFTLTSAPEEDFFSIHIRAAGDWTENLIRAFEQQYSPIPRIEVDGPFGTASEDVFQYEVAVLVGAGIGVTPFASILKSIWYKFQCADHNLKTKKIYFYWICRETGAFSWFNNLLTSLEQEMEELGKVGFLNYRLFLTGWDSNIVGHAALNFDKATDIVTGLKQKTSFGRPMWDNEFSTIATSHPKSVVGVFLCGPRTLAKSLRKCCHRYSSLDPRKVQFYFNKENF
T1 sequence (P13498 2-195 partner limits assumed): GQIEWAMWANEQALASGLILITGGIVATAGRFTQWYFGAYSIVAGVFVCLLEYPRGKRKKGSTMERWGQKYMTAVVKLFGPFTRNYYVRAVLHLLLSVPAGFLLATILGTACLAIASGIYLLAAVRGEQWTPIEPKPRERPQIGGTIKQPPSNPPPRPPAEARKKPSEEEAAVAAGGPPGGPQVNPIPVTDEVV
Put plainly: Expi293 whole cell assay, NOX1 overexpression. Type of test: cell-based. As to conditions: highest dose about 100x the IC50 versus NOX2. How it is done:
(§1) Given concerns about previous assays for specific NOX family members we here report the first use of the Expi293 Expression System (Thermo Scientific) to overexpress NOX1, 2, 3, 4, and 5 in excess of any endogenous NOX proteins present in these cells. Transfections were performed following the manufacturer's instructions using the plasmids for each NOX as described in Supplemental Table 2 except that the enhancer solution provided with the Expi293 system was not used because it promoted enzyme activation.
(§2) After the times indicated in Supplemental Table 2, cells were washed and 50,000 added per well of a white 96-well plate (Greiner) along with 50 μM Luminol and 2.5 U horseradish peroxidase/mL in a volume of 90 μl for NOX1, NOX2, and NOX5. Inhibitors or vehicle controls were added and cells were incubated for 20 min at 37 °C prior to activation with the indicated stimuli. For NOX3 and NOX4 (constitutively active), cells were incubated with inhibitor or vehicle control prior to the addition of luminol and HRP. Chemiluminescence was measured every 2 min for 1 s per well at 37 °C in a Varioscan Multimode reader. AUC data were analyzed using GraphPad Prism using non-linear regression analysis after expressing relative to control alone (maximum ROS production).

Test [1] relates to NOX3 reconstituted with p47phox and p67phox. The experiment in a line: NOX3 reconstituted with cytosolic phox proteins (p47phox and p67phox), data not shown. The test is classed as cell-based. The source says: Another experiment (data not shown) examined the potency of NCATS-SM7270 against NOX1 and NOX3 reconstituted with cytosolic phox proteins (p47phox and p67phox).
The next test concerns the target T2, Bovine Xanthine Oxidase (Bos taurus, UniProt P80457).
T2 construct: purchased Sigma
The experiment in a line: Xanthine oxidase / hypoxanthine luminol chemiluminescence assay. The test is classed as biochemical. As to conditions: xanthine oxidase with hypoxanthine; mean ± SD, n in cell; read-out: X/XO IC50. How it is done: Bovine Xanthine Oxidase (Sigma) was dialyzed in PBS to remove ammonium sulfate and stored at 4 °C. Hypoxanthine was prepared by heating in DMSO. Reactions were prepared by diluting xanthine oxidase in HBSS (final concentration 1.25 mU/mL) that contained 50 μM luminol and were preincubated 5 min with control or inhibitor before the addition of hypoxanthine at a final concentration of 0.5 mM. Luminescence was measured at 24 °C as described above.

A further test concerns the target T3, NOX5 (Homo sapiens, UniProt Q96PH1).
T3 sequence (Q96PH1 1-719 isoform Q96PH1-4): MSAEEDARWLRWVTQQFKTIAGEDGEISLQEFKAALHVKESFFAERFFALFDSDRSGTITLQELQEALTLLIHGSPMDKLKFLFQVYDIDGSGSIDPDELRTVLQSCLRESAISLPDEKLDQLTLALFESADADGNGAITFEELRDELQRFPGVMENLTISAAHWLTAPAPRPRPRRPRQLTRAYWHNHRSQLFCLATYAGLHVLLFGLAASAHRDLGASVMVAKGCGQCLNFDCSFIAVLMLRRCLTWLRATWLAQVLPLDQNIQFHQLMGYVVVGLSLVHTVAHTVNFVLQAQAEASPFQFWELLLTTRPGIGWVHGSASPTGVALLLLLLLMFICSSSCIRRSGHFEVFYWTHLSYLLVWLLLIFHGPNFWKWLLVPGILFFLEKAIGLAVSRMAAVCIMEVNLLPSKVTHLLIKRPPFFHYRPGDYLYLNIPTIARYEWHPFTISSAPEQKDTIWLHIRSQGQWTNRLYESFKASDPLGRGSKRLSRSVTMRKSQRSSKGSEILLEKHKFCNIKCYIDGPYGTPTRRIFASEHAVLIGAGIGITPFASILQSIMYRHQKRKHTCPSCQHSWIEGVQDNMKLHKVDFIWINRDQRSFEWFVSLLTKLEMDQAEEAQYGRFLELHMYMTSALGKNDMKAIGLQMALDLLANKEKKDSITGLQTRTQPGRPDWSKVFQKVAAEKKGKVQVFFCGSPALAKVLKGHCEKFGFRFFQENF
Put plainly: Expi293 whole cell assay, NOX5 overexpression. The test is classed as cell-based. As to conditions: highest dose about 100x the IC50 versus NOX2. As for the experimental part: as §1, §2

In another test the target is T4, NOX2 (Homo sapiens, UniProt P04839).
T4 sequence (P04839 2-570 limits assumed): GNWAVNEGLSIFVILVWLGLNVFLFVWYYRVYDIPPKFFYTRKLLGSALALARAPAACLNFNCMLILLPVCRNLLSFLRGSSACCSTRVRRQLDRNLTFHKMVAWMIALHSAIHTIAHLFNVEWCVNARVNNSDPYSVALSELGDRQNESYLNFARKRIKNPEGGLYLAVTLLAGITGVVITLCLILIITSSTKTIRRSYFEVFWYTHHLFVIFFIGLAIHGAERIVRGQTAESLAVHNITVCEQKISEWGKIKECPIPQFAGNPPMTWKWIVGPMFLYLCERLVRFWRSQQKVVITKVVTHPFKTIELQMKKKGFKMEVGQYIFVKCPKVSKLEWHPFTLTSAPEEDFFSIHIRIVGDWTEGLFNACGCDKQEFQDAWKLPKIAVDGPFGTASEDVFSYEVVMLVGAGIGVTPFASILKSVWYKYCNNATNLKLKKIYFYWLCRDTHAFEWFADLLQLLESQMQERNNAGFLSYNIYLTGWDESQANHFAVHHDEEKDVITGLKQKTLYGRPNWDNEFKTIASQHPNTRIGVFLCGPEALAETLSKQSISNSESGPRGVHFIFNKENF
T4 sequence (P13498 2-195 partner limits assumed): T1 sequence (P13498 2-195 partner limits assumed)
Put plainly: Expi293 whole cell assay, NOX2 overexpression. Type of test: cell-based. As to conditions: Expi293 cells expressing NOX2.

T2 sequence (P80457 whole entry): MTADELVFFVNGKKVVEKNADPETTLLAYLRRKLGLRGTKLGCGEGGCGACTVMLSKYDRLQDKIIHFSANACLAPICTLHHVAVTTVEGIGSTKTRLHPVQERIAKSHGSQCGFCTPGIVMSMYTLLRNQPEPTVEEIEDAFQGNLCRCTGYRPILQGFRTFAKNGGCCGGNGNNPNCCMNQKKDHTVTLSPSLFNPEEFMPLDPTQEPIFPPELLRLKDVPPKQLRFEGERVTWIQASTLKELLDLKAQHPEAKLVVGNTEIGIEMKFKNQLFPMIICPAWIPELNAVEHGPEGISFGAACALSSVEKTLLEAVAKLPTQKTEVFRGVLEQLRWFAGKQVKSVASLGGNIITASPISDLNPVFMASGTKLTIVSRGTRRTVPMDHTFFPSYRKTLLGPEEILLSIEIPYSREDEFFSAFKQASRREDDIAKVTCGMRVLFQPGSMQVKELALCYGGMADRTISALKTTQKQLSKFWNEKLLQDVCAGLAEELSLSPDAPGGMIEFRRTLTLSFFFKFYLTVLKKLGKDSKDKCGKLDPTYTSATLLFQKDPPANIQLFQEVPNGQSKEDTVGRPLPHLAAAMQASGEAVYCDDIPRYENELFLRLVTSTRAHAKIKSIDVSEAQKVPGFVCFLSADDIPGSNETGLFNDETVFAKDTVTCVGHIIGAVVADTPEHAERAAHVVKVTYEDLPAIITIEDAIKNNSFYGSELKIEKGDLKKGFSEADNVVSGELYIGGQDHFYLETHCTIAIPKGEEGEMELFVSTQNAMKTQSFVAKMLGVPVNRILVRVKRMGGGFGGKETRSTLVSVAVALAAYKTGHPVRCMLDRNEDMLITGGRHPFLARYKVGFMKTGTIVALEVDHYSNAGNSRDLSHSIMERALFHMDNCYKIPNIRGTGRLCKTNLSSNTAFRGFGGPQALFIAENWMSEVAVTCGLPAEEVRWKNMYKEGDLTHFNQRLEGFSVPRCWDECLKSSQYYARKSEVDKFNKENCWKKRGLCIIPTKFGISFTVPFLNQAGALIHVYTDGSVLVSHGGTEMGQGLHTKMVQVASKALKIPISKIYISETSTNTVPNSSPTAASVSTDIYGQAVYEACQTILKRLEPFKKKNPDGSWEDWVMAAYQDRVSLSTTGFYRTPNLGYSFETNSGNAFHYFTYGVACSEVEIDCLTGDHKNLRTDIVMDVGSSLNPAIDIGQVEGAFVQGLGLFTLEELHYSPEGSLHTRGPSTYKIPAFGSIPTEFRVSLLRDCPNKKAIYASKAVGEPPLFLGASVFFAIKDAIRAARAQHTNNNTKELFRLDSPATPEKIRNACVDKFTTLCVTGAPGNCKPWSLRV
Description for NOX2: Given concerns about previous assays for specific NOX family members [45] we here report the first use of the Expi293 Expression System (Thermo Scientific) to overexpress NOX1, 2, 3, 4, and 5 in excess of any endogenous NOX proteins present in these cells. Transfections were performed following the manufacturer's instructions using the plasmids for each NOX as described in Supplemental Table 2 except that the enhancer solution provided with the Expi293 system was not used because it promoted enzyme activation.
After the times indicated in Supplemental Table 2, cells were washed and 50,000 added per well of a white 96-well plate (Greiner) along with 50 μM Luminol and 2.5 U horseradish peroxidase/mL in a volume of 90 μl for NOX1, NOX2, and NOX5. Inhibitors or vehicle controls were added and cells were incubated for 20 min at 37 °C prior to activation with the indicated stimuli. […] Chemiluminescence was measured every 2 min for 1 s per well at 37 °C in a Varioscan Multimode reader. AUC data were analyzed using GraphPad Prism using non-linear regression analysis after expressing relative to control alone (maximum ROS production).

Take `Cn1ccc(S(=O)(=O)Nc2ccnc3c2c(-c2ccc4ccn(C)c4c2)cn3C2CC2)n1` [NCATS-SM7270, N-(1-cyclopropyl-3-(1-methyl-1H-indol-6-yl)-1H-pyrrolo [2,3-b]pyridin-4-yl)-1-methyl-1H-pyrazole-3-sulfonamide]: at NOX1, the “activity against NOX1” value was “only marginal activity at the highest dose tested”. Moreover, in test [1], the “dose needed to observe inhibition of NOX3 versus NOX2” value was approximately 10 fold. In addition, the IC50 at Bovine Xanthine Oxidase came out at 4.1 ± 5.66 µM. The “activity against NOX5” value at NOX5 is on record as “only marginal activity at the highest dose tested”. On NOX2, the “improvement in potency toward NOX2 compared with GSK2795039” value is recorded as 2 fold.
